According to ChEMBL document CHEMBL4699516, “S-Bridged Thioether and Structure-Diversified Angucyclinone Derivatives from the South China Sea-Derived Micromonospora echinospora SCSIO 04089” (J Nat Prod, 2020):
pIC50: −log10 of the molar value. Values after ≈ are worked out from the molar mass of the structure shown.

Tests used:
Bacillus subtilis = test: Antibacterial activity against […] 1064 assessed as reduction in bacterial growth after 16 hrs by broth microdilution method; type: functional
Micrococcus luteus = test: Antibacterial activity against Micrococcus luteus SCSIO ML01 assessed as reduction in bacterial growth after 16 hrs by broth microdilution method; type: functional
MCF7 = test: Cytotoxicity against human MCF7 cells assessed as reduction in cell viability after 72 hrs by SRB assay; type: functional, cell-based; conditions: MCF7, 72 h
Staphylococcus aureus [1] = test: Antibacterial activity against Staphylococcus aureus ATCC 29213 assessed as reduction in bacterial growth after 16 hrs by broth microdilution method; type: functional
Bacillus thuringiensis = test: Antibacterial activity against Bacillus thuringiensis SCSIO BT01 assessed as reduction in bacterial growth after 16 hrs by broth microdilution method; type: functional
SF-268 = test: Cytotoxicity against human SF-268 cells assessed as reduction in cell viability after 72 hrs by SRB assay; type: functional, cell-based; conditions: SF-268, 72 h
Staphylococcus aureus [2] = test: Antibacterial activity against methicillin-resistant Staphylococcus aureus shhs-A1 assessed as reduction in bacterial growth after 16 hrs by broth microdilution method; type: functional
HepG2 = test: Cytotoxicity against human HepG2 cells assessed as reduction in cell viability after 72 hrs by SRB assay; type: functional, cell-based; conditions: HepG2, 72 h

SMILES | MIC (Bacillus subtilis) [µg/mL] | MIC (Micrococcus luteus) [µg/mL] | pIC50 (MCF7) | MIC (Staphylococcus aureus [1]) [µg/mL] | MIC (Bacillus thuringiensis) [µg/mL] | pIC50 (SF-268) | MIC (Staphylococcus aureus [2]) [µg/mL] | pIC50 (HepG2)
CCc1cc(O)c(C2=C(O)C(=O)c3c(O)cccc3C2=O)c(C(=O)OC)c1 | > 64 | > 64 | < 4.00 | > 64 | > 64 | < 4.00 | > 64 | < 4.00
CC[C@]12CC(=O)[C@@]3(O)[C@](O)(CC(O)=C4C(=O)c5c(O)cccc5C(=O)[C@@]43S1)C2 | > 64 | > 64 | < 4.00 | > 64 | > 64 | < 4.00 | > 64 | < 4.00
CCc1cc(O)c2c(c1C(C)=O)C(=O)c1cccc(O)c1C2=O | > 64 | > 64 | 4.98 | > 64 | > 64 | 5.12 | > 64 | 5.09
CCc1cc(O)c2c3c(ncc2c1)C(=O)c1c(O)cccc1C3=O | 4 (≈ 12.5 µM) | 4 (≈ 12.5 µM) | 5.17 | 2 (≈ 6.26 µM) | 4 (≈ 12.5 µM) | 5.27 | 2 (≈ 6.26 µM) | 5.85
CCc1cc(O)c2c(c1)C(SC[C@H](NC(C)=O)C(=O)O)=C1C(=O)c3c(O)cccc3C(O)=C12 | > 64 | > 64 | < 4.00 | > 64 | > 64 | < 4.00 | > 64 | < 4.00
CCc1cc(O)c2c3c([nH]c(=O)c2c1)C(=O)c1c(O)cccc1C3=O | > 64 | > 64 | 4.28 | 64 (≈ 191 µM) | > 64 | 4.74 | 64 (≈ 191 µM) | 5.40
CCc1cc(O)c2c3c(c(O)cc2c1)C(=O)c1c(O)cccc1C3=O | > 64 | 8 (≈ 23.9 µM) | 4.83 | 4 (≈ 12 µM) | > 64 | 4.77 | > 64 | 4.60
CCc1cc(C(=O)O)c2c3c(oc2c1)C(=O)c1c(O)cccc1C3=O | > 64 | > 64 | < 4.00 | > 64 | > 64 | < 4.00 | > 64 | < 4.00
CC[C@]1(O)CC(=O)c2c(cc(O)c3c2C(=O)c2cccc(O)c2C3=O)C1 | > 64 | > 64 | 4.90 | > 64 | > 64 | 5.05 | > 64 | 4.99
CCc1cc(O)c2c(c1)C(N)=C1C(=O)c3c(O)cccc3C(=O)C12CC(C)=O (racemic) | > 64 | > 64 | < 4.00 | > 64 | > 64 | < 4.00 | > 64 | < 4.00
Cc1cn([C@H]2C[C@H](O)[C@@H](COP(=O)(O)O)O2)c(=O)[nH]c1=O [THYMIDINE MONOPHOSPHATE] | 0.5 | 0.5 | – | 2 | 0.5 | – | 2 | –
